Reference: patent US20080064668A1, “1,3-Diacylated, 26,27-Alkyl/Haloakyl Vitamin D3 Compounds and Methods of Use Thereof” (BioXell S.p.A., priority 2003, published 2008)

Columns and labels:
IFN-γ production = IFN-γ production in the mixed leukocyte response (MLR); type: cell-based; details: 120 h; allogeneic PBMC from 2 donors, 5 days, ELISA; read-out: INF-γ IC50
Procedure: Immature dendritic cells (DC) were prepared as described in Romani, N. et al. (Romani, N. et al. (1996) J. Immunol. Meth. 196:137). IFN-γ production by allogeneic T cell activation in the mixed leukocyte response (MLR) was determined as described in Penna, G., et al., J Immunol., 164: 2405-2411 (2000).
Briefly, peripheral blood mononuclear cells (PBMC) were separated from buffy coats by Ficoll gradient and the same number (3×10^5) of allogeneic PBMC from 2 different donors were co-cultured in 96-well flat-bottom plates. The vitamin D3 compounds were added to each of the cultures.

RT112 = experiment: Proliferation assay using bladder cancer cell lines, RT112; type: cell-based, human; details: Homo sapiens, RT-112, 72 h, 72 h culture, CyQuant proliferation assay
Procedure: (§1) Bladder cancer cell lines (T24, RT112, HT1376 and RT4 are human bladder cancer cell lines; NHEK are normal human keratinocytes) were obtained from the European Collection of Cell Cultures (Salisbury, UK). Cells were plated at 3×10^3 per well, in flat bottomed 96-well plates in 100 μl of DMEM medium containing: 5% Fetal Clone I, 50 μg/l gentamicin, 1 mM sodium pyruvate and 1% non-essential amino acids. After culturing for 24 h at 37° C. in 5% CO2, to allow cells to adhere to the plates, VDR ligands (compounds (2), (4), (5) and other vitamin D3 analogs as shown in Table 4) were added at concentrations ranging from 100 μM to 0.3 μM in 100 μl of above-mentioned complete medium. After a further 72 h of culture, cell proliferation was measured using a fluorescence-based proliferation assay kit. (CyQuant Cell Proliferation Assay Kit, Molecular Probes, Eugene, Oreg., USA). The IC50 was calculated from the regression curve of the titration data.

HT 1376 = experiment: Proliferation assay using bladder cancer cell lines, HT1376; type: cell-based, human; details: Homo sapiens, HT-1376; 72 h culture, CyQuant proliferation assay
Procedure: as §1

NHEK = experiment: Proliferation assay, NHEK normal human keratinocytes; type: cell-based; details: Homo sapiens, NHEK; 72 h culture, CyQuant proliferation assay
Procedure: as §1

non-obese (NOD)/Lt mice = experiment: Inhibition of Type 1 Diabetes development by VDR ligand administration; type: in vivo; details: for mice diabetic by 27 weeks of age: vehicle controls about 70%
Procedure: The non-obese (NOD)/Lt mice used for the experiments were purchased from Charles River Laboratories (Calco, Italy). All mice were kept under specific pathogen-free conditions. Glucose levels in the tail venous blood were quantified using a EUROFlash (Lifescan, Issy les Moulineaux, France). A diagnosis of diabetes was after two sequential glucose measurements higher than 200 mg/dl.
1,3-Di-O-acetyl-1,25-dihydroxy-16,23Z-diene-26,27-hexafluoro-19-nor-cholecalciferol (2) was dissolved in ethanol (1 mg/ml) and then diluted in miglyol 812. […]

CC(=O)OC1C/C(=C/C=C2\CCC[C@]3(C)C(C(C)C/C=C\C(O)(C(F)(F)F)C(F)(F)F)=CCC23)C[C@@H](OC(C)=O)C1 (some centres unmarked) [Compound (2), 1,3-Di-O-acetyl-1,25-dihydroxy-16,23Z-diene-26,27-hexafluoro-19-nor-cholecalciferol]
30%: Percent Type 1 Diabetes Mellitus incidence (non-obese (NOD)/Lt mice; 0.1 ug/kg p.o., week 22) | Percent Type 1 Diabetes Mellitus incidence (non-obese (NOD)/Lt mice; 0.1 ug/kg p.o., week 23) | mice diabetic by 27 weeks of age (non-obese (NOD)/Lt mice; 0.1 mg/Kg per os 5×/week from 8 to 16 weeks of age) | Percent Type 1 Diabetes Mellitus incidence (non-obese (NOD)/Lt mice; 0.2 mg/kg p.o., week 26) | Percent Type 1 Diabetes Mellitus incidence (non-obese (NOD)/Lt mice; 0.2 mg/kg p.o., week 27)
significantly lower: incidence of disease compared to controls (non-obese (NOD)/Lt mice; NOD/Lt female mice, 0.1 or 0.2 mg/Kg per os)
100 µM: IC50 (HT 1376)
0.000722 µM: IC50 (IFN-γ production)
9.8 µM: IC50 (NHEK)
20%: Percent Type 1 Diabetes Mellitus incidence (non-obese (NOD)/Lt mice; 0.1 ug/kg p.o., week 21) | Percent Type 1 Diabetes Mellitus incidence (non-obese (NOD)/Lt mice; 0.2 mg/kg p.o., week 23) | Percent Type 1 Diabetes Mellitus incidence (non-obese (NOD)/Lt mice; 0.2 mg/kg p.o., week 24) | Percent Type 1 Diabetes Mellitus incidence (non-obese (NOD)/Lt mice; 0.2 mg/kg p.o., week 25)
2%: Percent Type 1 Diabetes Mellitus incidence (non-obese (NOD)/Lt mice; 0.1 ug/kg p.o., week 8) | Percent Type 1 Diabetes Mellitus incidence (non-obese (NOD)/Lt mice; 0.1 ug/kg p.o., week 12) | Percent Type 1 Diabetes Mellitus incidence (non-obese (NOD)/Lt mice; 0.1 ug/kg p.o., week 13) | Percent Type 1 Diabetes Mellitus incidence (non-obese (NOD)/Lt mice; 0.1 ug/kg p.o., week 14) | Percent Type 1 Diabetes Mellitus incidence (non-obese (NOD)/Lt mice; 0.1 ug/kg p.o., week 15) | Percent Type 1 Diabetes Mellitus incidence (non-obese (NOD)/Lt mice; 0.1 ug/kg p.o., week 16)
10%: Percent Type 1 Diabetes Mellitus incidence (non-obese (NOD)/Lt mice; 0.1 ug/kg p.o., week 17) | Percent Type 1 Diabetes Mellitus incidence (non-obese (NOD)/Lt mice; 0.1 ug/kg p.o., week 18) | Percent Type 1 Diabetes Mellitus incidence (non-obese (NOD)/Lt mice; 0.1 ug/kg p.o., week 19) | Percent Type 1 Diabetes Mellitus incidence (non-obese (NOD)/Lt mice; 0.1 ug/kg p.o., week 20) | Percent Type 1 Diabetes Mellitus incidence (non-obese (NOD)/Lt mice; 0.2 mg/kg p.o., week 20) | Percent Type 1 Diabetes Mellitus incidence (non-obese (NOD)/Lt mice; 0.2 mg/kg p.o., week 21) | Percent Type 1 Diabetes Mellitus incidence (non-obese (NOD)/Lt mice; 0.2 mg/kg p.o., week 22)
1%: Percent Type 1 Diabetes Mellitus incidence (non-obese (NOD)/Lt mice; 0.2 mg/kg p.o., week 8) | Percent Type 1 Diabetes Mellitus incidence (non-obese (NOD)/Lt mice; 0.2 mg/kg p.o., week 12) | Percent Type 1 Diabetes Mellitus incidence (non-obese (NOD)/Lt mice; 0.2 mg/kg p.o., week 13) | Percent Type 1 Diabetes Mellitus incidence (non-obese (NOD)/Lt mice; 0.2 mg/kg p.o., week 14) | Percent Type 1 Diabetes Mellitus incidence (non-obese (NOD)/Lt mice; 0.2 mg/kg p.o., week 15) | Percent Type 1 Diabetes Mellitus incidence (non-obese (NOD)/Lt mice; 0.2 mg/kg p.o., week 16) | Percent Type 1 Diabetes Mellitus incidence (non-obese (NOD)/Lt mice; 0.2 mg/kg p.o., week 17) | Percent Type 1 Diabetes Mellitus incidence (non-obese (NOD)/Lt mice; 0.2 mg/kg p.o., week 18) | Percent Type 1 Diabetes Mellitus incidence (non-obese (NOD)/Lt mice; 0.2 mg/kg p.o., week 19)
40%: Percent Type 1 Diabetes Mellitus incidence (non-obese (NOD)/Lt mice; 0.1 ug/kg p.o., week 24) | Percent Type 1 Diabetes Mellitus incidence (non-obese (NOD)/Lt mice; 0.1 ug/kg p.o., week 25) | Percent Type 1 Diabetes Mellitus incidence (non-obese (NOD)/Lt mice; 0.1 ug/kg p.o., week 26) | Percent Type 1 Diabetes Mellitus incidence (non-obese (NOD)/Lt mice; 0.1 ug/kg p.o., week 27) | mice diabetic by 27 weeks of age (non-obese (NOD)/Lt mice; 0.2 mg/Kg per os 5×/week from 8 to 16 weeks of age)
1 µM: IC50 (RT112)
